Test results from paper PMC11726654, “Discovery of MDI-114215: A Potent and Selective LIMK Inhibitor To Treat Fragile X Syndrome” (Journal of Medicinal Chemistry, 2024).

Experiments:
LIMK1 = LIMK1 (Homo sapiens, UniProt P53667); experiment: RapidFire mass spectrometry kinase assay (cofilin phosphorylation); assay type: biochemical; details: non-phosphorylated LIMK1; mean ± SEM; read-out: Enzymatic (RapidFire) pIC50 LIMK1 (converted)
LIMK2 = LIMK2 (Homo sapiens, UniProt P53671); experiment: as above; assay type: biochemical; details: non-phosphorylated LIMK2; mean ± SEM; read-out: Enzymatic (RapidFire) pIC50 LIMK2 (converted)
Microsomal stability [1] = details: for microsomal CLint at 2 μM / microsomal CLint at 0.5 h, 2 µM: human, microsomes, pH 7.4; for Microsomal CLint Human: human microsomes, 2 μM compound
Microsomal stability [2] = details: for Microsomal CLint Rat: rat microsomes, 2 μM compound

Chain of LIMK2 (P53671 whole entry): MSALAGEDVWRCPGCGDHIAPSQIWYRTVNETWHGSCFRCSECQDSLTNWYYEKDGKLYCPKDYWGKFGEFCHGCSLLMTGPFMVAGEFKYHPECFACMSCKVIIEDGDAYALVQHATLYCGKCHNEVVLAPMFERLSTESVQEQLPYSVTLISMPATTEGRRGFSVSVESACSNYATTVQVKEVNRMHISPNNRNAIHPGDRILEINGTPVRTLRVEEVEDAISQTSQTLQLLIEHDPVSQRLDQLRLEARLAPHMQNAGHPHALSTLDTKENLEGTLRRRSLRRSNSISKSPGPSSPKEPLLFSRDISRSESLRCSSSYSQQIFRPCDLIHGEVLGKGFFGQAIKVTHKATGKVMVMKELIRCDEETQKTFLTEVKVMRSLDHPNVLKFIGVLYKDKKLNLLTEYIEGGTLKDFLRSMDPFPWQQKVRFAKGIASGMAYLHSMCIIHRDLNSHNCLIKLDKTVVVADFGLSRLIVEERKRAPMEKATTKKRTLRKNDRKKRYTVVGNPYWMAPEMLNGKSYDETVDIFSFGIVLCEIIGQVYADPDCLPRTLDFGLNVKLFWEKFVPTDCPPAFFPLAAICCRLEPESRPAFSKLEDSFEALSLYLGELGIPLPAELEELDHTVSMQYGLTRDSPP
Chain of LIMK1 (P53667 whole entry): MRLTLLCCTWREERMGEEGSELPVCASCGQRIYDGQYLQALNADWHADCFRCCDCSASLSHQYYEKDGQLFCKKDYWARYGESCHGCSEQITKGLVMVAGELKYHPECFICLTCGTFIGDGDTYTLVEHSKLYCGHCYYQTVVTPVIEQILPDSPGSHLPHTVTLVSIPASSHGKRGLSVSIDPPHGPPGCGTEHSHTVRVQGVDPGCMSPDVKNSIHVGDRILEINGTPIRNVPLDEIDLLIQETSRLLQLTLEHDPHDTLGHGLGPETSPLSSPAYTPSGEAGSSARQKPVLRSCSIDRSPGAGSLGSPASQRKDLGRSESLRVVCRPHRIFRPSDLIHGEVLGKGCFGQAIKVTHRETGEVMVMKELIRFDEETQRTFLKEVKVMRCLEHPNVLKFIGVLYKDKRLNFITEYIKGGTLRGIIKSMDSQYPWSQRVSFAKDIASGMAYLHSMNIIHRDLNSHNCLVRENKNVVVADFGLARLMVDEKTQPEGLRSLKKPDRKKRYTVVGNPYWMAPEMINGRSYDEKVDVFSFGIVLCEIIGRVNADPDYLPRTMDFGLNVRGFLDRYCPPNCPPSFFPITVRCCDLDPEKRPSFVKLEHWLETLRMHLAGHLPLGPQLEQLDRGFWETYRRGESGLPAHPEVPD

| Structure (SMILES) | IC50 (LIMK1) [nM] | IC50 (LIMK2) [nM] | microsomal CLint at 2 μM (Microsomal stability [1]) [µL/min/mg] | microsomal CLint at 2 μM (Microsomal stability [2]; rat, microsomes, pH 7.4) [µL/min/mg] | Microsomal CLint Rat (Microsomal stability [2]) | Microsomal CLint Human (Microsomal stability [1]) | microsomal CLint at 0.5 h, 2 µM (Microsomal stability [1]) [µL/min/mg] | microsomal CLint at 0.5 h, 2 µM (Microsomal stability [2]; rat, microsomes, pH 7.4) [µL/min/mg] |
| --- | --- | --- | --- | --- | --- | --- | --- | --- |
| CCCCN(Cc1ccccc1)C(=O)c1ccc(S(=O)(=O)Nc2ccccc2)cc1F [Compound 21, N-Benzyl-N-butyl-2-fluoro-4-(phenylsulfamoyl)benzamide] | 407 | 30.2 |  |  |  |  |  |  |
| CCCCN(Cc1ccccc1)C(=O)c1ccc(S(=O)(=O)Nc2ccccc2)cc1C [Compound 22, N-Benzyl-N-butyl-2-methyl-4-(phenylsulfamoyl)benzamide] | 2140 | 148 |  |  |  |  |  |  |
| CCCCN(Cc1ccccc1)C(=O)c1ccc(S(=O)(=O)Nc2ccccc2)cn1 [Compound 23, N-Benzyl-N-butyl-5-(phenylsulfamoyl)pyridine-2-carboxamide] | 1350 | 166 |  |  |  |  |  |  |
| CCCCN(Cc1ccccc1)C(=O)c1cnc(S(=O)(=O)Nc2ccccc2)nc1 [Compound 24, N-Benzyl-N-butyl-2-(phenylsulfamoyl)pyrimidine-5-carboxamide] | 891 | 1740 |  |  |  |  |  |  |
| CCCCN(Cc1ccccc1)C(=O)c1ccc(S(=O)(=O)Cc2ccccc2)cc1 [Compound 29, N-Benzyl-4-benzylsulfonyl-N-butyl-benzamide] | > 10000 | 468 |  |  |  |  |  |  |
| CCCCN(Cc1ccccc1)C(=O)c1coc(S(=O)(=O)Nc2ccccc2)c1 [Compound 30, N-Benzyl-N-butyl-5-(phenylsulfamoyl)furan-3-carboxamide] | 6920 | 933 |  |  |  |  |  |  |
| CCCCN(Cc1ccccc1)C(=O)c1ccc(S(=O)(=O)NC)cc1 [Compound 34, N-Benzyl-N-butyl-4-(N-methylsulfamoyl)benzamide] | > 10000 | > 10000 |  |  |  |  |  |  |
| CCCCN(Cc1ccccc1)C(=O)c1ccc(S(=O)(=O)Nc2ccncc2)cc1 [Compound 35, N-Benzyl-N-butyl-4-(N-(pyridin-4-yl)sulfamoyl)benzamide] | > 10000 | > 10000 |  |  |  |  |  |  |
| CCCCN(Cc1ccccc1)C(=O)c1ccc(S(=O)(=O)Nc2cnoc2)cc1 [Compound 36, N-Benzyl-N-butyl-4-(isoxazol-4-ylsulfamoyl)benzamide] | > 10000 | 6610 |  |  |  |  |  |  |
| CCCCN(Cc1ccccc1)C(=O)c1ccc(S(=O)(=O)NC2CCC2)cc1 [Compound 37, N-Benzyl-N-butyl-4-(N-cyclobutylsulfamoyl)benzamide] | 4470 | 372 |  |  |  |  |  |  |
| CCCCN(Cc1ccccc1)C(=O)c1ccc(S(=O)(=O)NC2COC2)cc1 [Compound 38, N-Benzyl-N-butyl-4-(N-(oxetan-3-yl)sulfamoyl)benzamide] | > 10000 | > 10000 |  |  |  |  |  |  |
| CCCCN(Cc1ccc(F)cc1)C(=O)c1ccc(S(=O)(=O)Nc2ccccc2)cc1 [Compound 39, N-Butyl-N-(4-fluorobenzyl)-4-(N-phenylsulfamoyl)benzamide] | 195 |  | 409 | 942 |  |  |  |  |
| CCCCN(Cc1ccc(OC)cc1)C(=O)c1ccc(S(=O)(=O)Nc2ccccc2)cc1 [Compound 40, N-Butyl-N-(4-methoxybenzyl)-4-(N-phenylsulfamoyl)benzamide] | 447 | 39.8 | 280 | 978 |  |  |  |  |
| CCCCN(Cc1cccc(OC)c1)C(=O)c1ccc(S(=O)(=O)Nc2ccccc2)cc1 [Compound 41, N-Butyl-N-(3-methoxybenzyl)-4-(N-phenylsulfamoyl)benzamide] | 1620 | 224 | 556 | 783 |  |  |  |  |
| CCCCN(Cc1ccccc1OC)C(=O)c1ccc(S(=O)(=O)Nc2ccccc2)cc1 [Compound 42, N-Butyl-N-(2-methoxybenzyl)-4-(N-phenylsulfamoyl)benzamide] | 2570 | 1170 | 812 | 827 |  |  |  |  |
| CCCCN(Cc1ccncc1)C(=O)c1ccc(S(=O)(=O)Nc2ccccc2)cc1 [Compound 43, N-Butyl-4-(N-phenylsulfamoyl)-N-(pyridin-4-ylmethyl)benzamide] | 977 | 19.1 | 144 | 484 |  |  |  |  |
| CCCCN(Cc1cccnc1)C(=O)c1ccc(S(=O)(=O)Nc2ccccc2)cc1 [Compound 44, N-Butyl-4-(N-phenylsulfamoyl)-N-(pyridin-3-ylmethyl)benzamide] | 8130 | 1510 | 234 |  | Rapid |  |  |  |
| CCCCN(Cc1ccccn1)C(=O)c1ccc(S(=O)(=O)Nc2ccccc2)cc1 [Compound 45, N-Butyl-4-(N-phenylsulfamoyl)-N-(pyridin-2-ylmethyl)benzamide] | 1290 | 51.3 | 256 |  | Rapid |  |  |  |

| Structure (SMILES) | IC50 (LIMK1) [nM] | IC50 (LIMK2) [nM] | microsomal CLint at 2 μM (Microsomal stability [1]) [µL/min/mg] | microsomal CLint at 2 μM (Microsomal stability [2]; rat, microsomes, pH 7.4) [µL/min/mg] | Microsomal CLint Rat (Microsomal stability [2]) | Microsomal CLint Human (Microsomal stability [1]) | microsomal CLint at 0.5 h, 2 µM (Microsomal stability [1]) [µL/min/mg] | microsomal CLint at 0.5 h, 2 µM (Microsomal stability [2]; rat, microsomes, pH 7.4) [µL/min/mg] |
| --- | --- | --- | --- | --- | --- | --- | --- | --- |
| CCCCN(Cc1ccco1)C(=O)c1ccc(S(=O)(=O)Nc2ccccc2)cc1 [Compound 46, N-Butyl-N-(furan-2-ylmethyl)-4-(N-phenylsulfamoyl)benzamide] | 347 |  |  |  | Rapid | Rapid |  |  |
| CCCCN(CC1CCCO1)C(=O)c1ccc(S(=O)(=O)Nc2ccccc2)cc1 (stereo not drawn) [Compound 47, N-Butyl-4-(N-phenylsulfamoyl)-N-((tetrahydrofuran-2-yl)methyl)benzamide] | > 10000 | > 10000 | 427 |  | Rapid |  |  |  |
| CCCCN(Cc1ccc(CCC(=O)O)cc1)C(=O)c1ccc(S(=O)(=O)Nc2ccccc2)cc1 [Compound 48, 3-(4-((N-Butyl-4-(N-phenylsulfamoyl)benzamido)methyl)phenyl)propanoic acid] | 166 | 20.9 | 15 | 18 |  |  |  |  |
| CCCCN(Cc1ccc(N2CCNCC2)cc1)C(=O)c1ccc(S(=O)(=O)Nc2ccccc2)cc1 [Compound 49, N-Butyl-4-(N-phenylsulfamoyl)-N-(4-(piperazin-1-yl)benzyl)benzamide] | > 10000 | 2290 | 50 | 56 |  |  |  |  |
| CCN(Cc1ccccc1)C(=O)c1ccc(S(=O)(=O)Nc2ccccc2)cc1 [Compound 52, N-Benzyl-N-ethyl-4-(N-phenylsulfamoyl)benzamide] |  |  | 720 |  | Rapid |  |  |  |
| O=C(c1ccc(S(=O)(=O)Nc2ccccc2)cc1)N(CCO)Cc1ccccc1 [Compound 53, N-Benzyl-N-(2-hydroxyethyl)-4-(N-phenylsulfamoyl)benzamide] | 209 |  | 76 |  | Rapid |  |  |  |
| O=C(c1ccc(S(=O)(=O)Nc2ccccc2)cc1)N(CCCn1ccnc1)Cc1ccccc1 [Compound 56, N-Benzyl-N-(3-imidazol-1-ylpropyl)-4-(phenylsulfamoyl)benzamide] | 347 | 18.2 | 80 | 158 |  |  |  |  |
| O=C(c1ccc(S(=O)(=O)Nc2ccccc2)cc1)N(Cc1ccccc1)CC1CC1 [Compound 57, N-Benzyl-N-(cyclopropylmethyl)-4-(phenylsulfamoyl)benzamide] |  |  |  |  | Rapid |  | 495 |  |
| O=C(c1ccc(S(=O)(=O)Nc2ccccc2)cc1)N(Cc1ccccc1)C1CC1 [Compound 58, N-Benzyl-N-cyclopropyl-4-(phenylsulfamoyl)benzamide] | 1070 | 46.8 | 396 |  | Rapid |  |  |  |
| CC(C)CN(Cc1ccccc1)C(=O)c1ccc(S(=O)(=O)Nc2ccccc2)cc1 [Compound 59, N-Benzyl-N-isobutyl-4-(phenylsulfamoyl)benzamide] | 1020 | 20.9 |  |  | Rapid | Rapid |  |  |
| O=C(c1ccc(S(=O)(=O)Nc2ccccc2)cc1)N(Cc1ccccc1)CC1(Cn2ccnc2)CC1 [Compound 60, N-Benzyl-N-[[1-(imidazol-1-ylmethyl)cyclopropyl]methyl]-4-(phenylsulfamoyl)benzamide] | 407 | 19.1 | 109 | 395 |  |  |  |  |
| O=C(c1ccc(S(=O)(=O)Nc2ccccc2)cc1)N(Cc1ccc2[nH]ccc2c1)CC1CC1 [Compound 61, N-(Cyclopropylmethyl)-N-(1H-indol-5-ylmethyl)-4-(phenylsulfamoyl)benzamide] | 11 | 11 | 288 | 802 |  |  |  |  |
| O=C(c1ccc(S(=O)(=O)Nc2ccccc2)cc1)N(Cc1ccc2ncoc2c1)CC1CC1 [Compound 62, N-(1,3-Benzoxazol-6-ylmethyl)-N-(cyclopropylmethyl)-4-(phenylsulfamoyl)benzamide] | 95.5 | 6.46 | 263 |  | Rapid |  |  |  |
| O=C(c1ccc(S(=O)(=O)Nc2ccccc2)cc1)N(Cc1ccc(Br)cn1)CC1CC1 [Compound 63, N-[(5-Bromo-2-pyridyl)methyl]-N-(cyclopropylmethyl)-4-(phenylsulfamoyl)benzamide] | 19.1 | 25.7 | 307 |  | Rapid |  |  |  |
| Nc1ccc(CN(CC2CC2)C(=O)c2ccc(S(=O)(=O)Nc3ccccc3)cc2)nc1 [Compound 72, N-[(5-Amino-2-pyridyl)methyl]-N-(cyclopropylmethyl)-4-(phenylsulfamoyl)benzamide] |  |  |  |  |  |  | 36 | 431 |
| CN(C)CCNc1ccc(CN(CC2CC2)C(=O)c2ccc(S(=O)(=O)Nc3ccccc3)cc2)nc1 [Compound 78, N-(Cyclopropylmethyl)-N-[[5-[2-(dimethylamino)ethylamino]-2-pyridyl]methyl]-4-(phenylsulfamoyl)benzamide] |  |  | 23 | 31 |  |  |  |  |
| CCN(Cc1ccc(NCCO)cn1)C(=O)c1ccc(S(=O)(=O)Nc2ccccc2)cc1 [Compound 80, N-Ethyl-N-[[5-(2-hydroxyethylamino)-2-pyridyl]methyl]-4-(phenylsulfamoyl)benzamide] |  |  | 12 | 51 |  |  |  |  |
